Experimental data from PubChem BioAssay AID1259407 (Chemical Carcinogenesis Research Information System (CCRIS), 2018).
Calls of active or inactive are those of the source. The rule behind the calls is not given here.

System: CCRIS mutagenicity, Ames/micronucleus/aberration tests
Experiment: CCRIS mutagenicity studies
[1] = Test System: AMES SALMONELLA TYPHIMURIUM, Strain/Indicator: TA1538, Metabolic Activation: RAT, LIVER, S-9, AROCLOR 1254, Method: STANDARD PLATE
[2] = Test System: AMES SALMONELLA TYPHIMURIUM, Strain/Indicator: TA98, Metabolic Activation: NONE, Method: STANDARD PLATE
[3] = Test System: AMES SALMONELLA TYPHIMURIUM, Strain/Indicator: TA98, Metabolic Activation: RAT, LIVER, S-9, AROCLOR 1254, Method: STANDARD PLATE
[4] = Test System: AMES SALMONELLA TYPHIMURIUM, Strain/Indicator: TA100, Metabolic Activation: NONE, Method: STANDARD PLATE
[5] = Test System: AMES SALMONELLA TYPHIMURIUM, Strain/Indicator: TA100, Metabolic Activation: RAT, LIVER, S-9, AROCLOR 1254, Method: STANDARD PLATE
[6] = Test System: AMES SALMONELLA TYPHIMURIUM, Strain/Indicator: TA1535, Metabolic Activation: NONE, Method: STANDARD PLATE
[7] = Test System: AMES SALMONELLA TYPHIMURIUM, Strain/Indicator: TA1535, Metabolic Activation: RAT, LIVER, S-9, AROCLOR 1254, Method: STANDARD PLATE
[8] = Test System: AMES SALMONELLA TYPHIMURIUM, Strain/Indicator: TA1537, Metabolic Activation: NONE, Method: STANDARD PLATE
[9] = Test System: AMES SALMONELLA TYPHIMURIUM, Strain/Indicator: TA1537, Metabolic Activation: RAT, LIVER, S-9, AROCLOR 1254, Method: STANDARD PLATE
[10] = Test System: AMES SALMONELLA TYPHIMURIUM, Strain/Indicator: TA1538, Metabolic Activation: NONE, Method: STANDARD PLATE

## COc1cc(-c2ccc(N/N=C3/C(=O)c4c(N)cc(S(=O)(=O)O)cc4C=C3S(=O)(=O)O)c(OC)c2)ccc1N/N=C1/C(=O)c2c(N)cc(S(=O)(=O)O)cc2C=C1S(=O)(=O)O
End Point: IN VITRO CHROMOSOMAL ABERRATIONS, Test System: CHINESE HAMSTER OVARY CELLS, Metabolic Activation: NONE
  mutagenic call: inactive; negative
End Point: IN VITRO CHROMOSOMAL ABERRATIONS, Test System: CHINESE HAMSTER OVARY CELLS, Metabolic Activation: RAT, LIVER, S-9, AROCLOR 1254
  mutagenic call: inactive; negative
Test System: AMES SALMONELLA TYPHIMURIUM, Strain/Indicator: SV50, Metabolic Activation: HAMSTER, LIVER, S-9, Method: PREINCUBATION (PRIVAL METHOD)
  mutagenic call: active; positive
Test System: AMES SALMONELLA TYPHIMURIUM, Strain/Indicator: SV50, Metabolic Activation: RAT, LIVER, S-9, AROCLOR 1254, Method: PREINCUBATION (PRIVAL METHOD)
  mutagenic call: active; positive
Test System: AMES SALMONELLA TYPHIMURIUM, Strain/Indicator: TA98, Metabolic Activation: HAMSTER, LIVER, S-9, AROCLOR 1254 (10%), Method: PREINCUBATION
  mutagenic call: inactive; negative
Test System: AMES SALMONELLA TYPHIMURIUM, Strain/Indicator: TA98, Metabolic Activation: HAMSTER, LIVER, S-9, Method: PREINCUBATION (PRIVAL METHOD)
  mutagenic call: active; positive
Test System: AMES SALMONELLA TYPHIMURIUM, Strain/Indicator: TA98, Metabolic Activation: NONE, Method: PREINCUBATION
  mutagenic call: inactive; negative
Test System: AMES SALMONELLA TYPHIMURIUM, Strain/Indicator: TA98, Metabolic Activation: RAT, LIVER, S-9, AROCLOR 1254 (10%), Method: PREINCUBATION
  mutagenic call: inactive; negative
Test System: AMES SALMONELLA TYPHIMURIUM, Strain/Indicator: TA98, Metabolic Activation: RAT, LIVER, S-9, AROCLOR 1254, Method: PREINCUBATION (PRIVAL METHOD)
  mutagenic call: active; positive
Test System: AMES SALMONELLA TYPHIMURIUM, Strain/Indicator: TA100, Metabolic Activation: HAMSTER, LIVER, S-9, AROCLOR 1254 (10%), Method: PREINCUBATION
  mutagenic call: inactive; negative
Test System: AMES SALMONELLA TYPHIMURIUM, Strain/Indicator: TA100, Metabolic Activation: NONE, Method: PREINCUBATION
  mutagenic call: inactive; negative
Test System: AMES SALMONELLA TYPHIMURIUM, Strain/Indicator: TA100, Metabolic Activation: RAT, LIVER, S-9, AROCLOR 1254 (10%), Method: PREINCUBATION
  mutagenic call: inactive; negative
Test System: AMES SALMONELLA TYPHIMURIUM, Strain/Indicator: TA1535, Metabolic Activation: HAMSTER, LIVER, S-9, AROCLOR 1254 (10%), Method: PREINCUBATION
  mutagenic call: inactive; negative
Test System: AMES SALMONELLA TYPHIMURIUM, Strain/Indicator: TA1535, Metabolic Activation: NONE, Method: PREINCUBATION
  mutagenic call: inactive; negative
Test System: AMES SALMONELLA TYPHIMURIUM, Strain/Indicator: TA1535, Metabolic Activation: RAT, LIVER, S-9, AROCLOR 1254 (10%), Method: PREINCUBATION
  mutagenic call: inactive; negative
Test System: AMES SALMONELLA TYPHIMURIUM, Strain/Indicator: TA1537, Metabolic Activation: HAMSTER, LIVER, S-9, AROCLOR 1254 (10%), Method: PREINCUBATION
  mutagenic call: inactive; negative
Test System: AMES SALMONELLA TYPHIMURIUM, Strain/Indicator: TA1537, Metabolic Activation: NONE, Method: PREINCUBATION
  mutagenic call: inactive; negative
Test System: AMES SALMONELLA TYPHIMURIUM, Strain/Indicator: TA1537, Metabolic Activation: RAT, LIVER, S-9, AROCLOR 1254 (10%), Method: PREINCUBATION
  mutagenic call: inactive; negative
Test System: AMES SALMONELLA TYPHIMURIUM, Strain/Indicator: TA1538, Metabolic Activation: FLAVIN MONONUCLEOTIDE REDUCTION, HAMSTER, LIVER, S-9, Method: PREINCUBATION
  mutagenic call: active; positive
Test System: AMES SALMONELLA TYPHIMURIUM, Strain/Indicator: TA1538, Metabolic Activation: RAT, CECAL BACTERIAL REDUCTION, S-9, AROCLOR 1254, Method: PREINCUBATION
  mutagenic call: active; positive
Test System: AMES SALMONELLA TYPHIMURIUM, Strain/Indicator: TA1538, Metabolic Activation: RAT, LIVER, S-9, AROCLOR 1254, Method: PREINCUBATION
  mutagenic call: active; positive
[1]
  mutagenic call: active; positive

## Nc1cc([N+](=O)[O-])c(N)cc1Cl
[2]
  mutagenic call: active; positive
[3]
  mutagenic call: active; positive
[4]
  mutagenic call: inactive; negative
[5]
  mutagenic call: inactive; negative
[6]
  mutagenic call: inactive; negative
[7]
  mutagenic call: inactive; negative
[8]
  mutagenic call: inactive; negative
[9]
  mutagenic call: inactive; negative
[10]
  mutagenic call: active; positive
[1]
  mutagenic call: active; positive

## CN(C)c1ccc(N=Nc2ccccc2C(=O)O)cc1
Test System: AMES SALMONELLA TYPHIMURIUM, Strain/Indicator: TA98, Metabolic Activation: RAT, LIVER, S-9, POLYCHLORINATED BIPHENYLS, Method: PREINCUBATION
  mutagenic call: active; positive
Test System: AMES SALMONELLA TYPHIMURIUM, Strain/Indicator: TA100, Metabolic Activation: RAT, LIVER, S-9, POLYCHLORINATED BIPHENYLS, Method: PREINCUBATION
  mutagenic call: inactive; negative

## O=c1[nH]c2ccccc2o1
Test System: AMES SALMONELLA TYPHIMURIUM, Strain/Indicator: TA98, Metabolic Activation: HAMSTER, LIVER, S-9, AROCLOR 1254, Method: STANDARD PLATE
  mutagenic call: inactive; negative
[2]
  mutagenic call: inactive; negative
[3]
  mutagenic call: inactive; negative
Test System: AMES SALMONELLA TYPHIMURIUM, Strain/Indicator: TA100, Metabolic Activation: HAMSTER, LIVER, S-9, AROCLOR 1254, Method: STANDARD PLATE
  mutagenic call: inactive; negative
[4]
  mutagenic call: inactive; negative
[5]
  mutagenic call: inactive; negative
Test System: AMES SALMONELLA TYPHIMURIUM, Strain/Indicator: TA1535, Metabolic Activation: HAMSTER, LIVER, S-9, AROCLOR 1254, Method: STANDARD PLATE
  mutagenic call: inactive; negative
[6]
  mutagenic call: inactive; negative
[7]
  mutagenic call: inactive; negative
Test System: AMES SALMONELLA TYPHIMURIUM, Strain/Indicator: TA1537, Metabolic Activation: HAMSTER, LIVER, S-9, AROCLOR 1254, Method: STANDARD PLATE
  mutagenic call: inactive; negative
[8]
  mutagenic call: inactive; negative
[9]
  mutagenic call: inactive; negative
Test System: AMES SALMONELLA TYPHIMURIUM, Strain/Indicator: TA1538, Metabolic Activation: HAMSTER, LIVER, S-9, AROCLOR 1254, Method: STANDARD PLATE
  mutagenic call: inactive; negative
[10]
  mutagenic call: inactive; negative
[1]
  mutagenic call: inactive; negative
Test System: MOUSE LYMPHOMA, Strain/Indicator: L5178Y (TK+/TK-), Metabolic Activation: NONE, Method: SUSPENSION/PLATE
  mutagenic call: active; positive. reevaluation of results: equivocal
Test System: MOUSE LYMPHOMA, Strain/Indicator: L5178Y (TK+/TK-), Metabolic Activation: RAT, LIVER, S-9, AROCLOR 1254, Method: SUSPENSION/PLATE
  mutagenic call: inactive; negative. reevaluation of results: negative
